Data taken from ChEMBL document CHEMBL4261623, “Synthesis, computational studies and antiproliferative activities of coumarin-tagged 1,3,4-oxadiazole conjugates against MDA-MB-231 and MCF-7 human breast cancer cells” (Bioorg Med Chem, 2018).

Assays:
[1] = tested on: MCF7; assay: Potency index, ratio of tamoxifen IC50 to compound IC50 for antiproliferative activity against human MCF7 cells; type: functional
[2] = tested on: MCF7; assay: Antiproliferative activity against human MCF7 cells after 24 hrs by MTT assay; type: functional, cell-based; settings: MCF7, 24 h
[3] = tested on: MDA-MB-231; assay: Antiproliferative activity against human MDA-MB-231 cells after 24 hrs by MTT assay; type: functional, cell-based; settings: MDA-MB-231, 24 h
[4] = tested on: MDA-MB-231; assay: Potency index, ratio of tamoxifen IC50 to compound IC50 for antiproliferative activity against human MDA-MB-231 cells; type: functional

Row | SMILES | IC50 [2] [µM] | IC50 [3] [µM] | Ratio IC50 [1] | Ratio IC50 [4]
1 | Cc1cc(OCc2nnc(S(=O)(=O)Cc3ccc(F)c(F)c3)o2)cc2oc(=O)cc(C)c12 | 55.2 | 31.6 | – | –
2 | Cc1cc(OCc2nnc(SCc3ccc(F)c(F)c3)o2)cc2oc(=O)cc(C)c12 | 33.3 | > 100 | – | –
3 | Cc1cc(OCc2nnc(SCc3cccc(F)c3)o2)cc2oc(=O)cc(C)c12 | 26 | > 100 | – | –
4 | CCCCCCS(=O)(=O)c1nnc(COc2cc(C)c3c(C)cc(=O)oc3c2)o1 | > 100 | > 100 | – | –
5 | Cc1cc(OCc2nnc(S(=O)(=O)Cc3cccc(F)c3)o2)cc2oc(=O)cc(C)c12 | 70.4 | 21.3 | – | –
6 | Cc1cc(OCc2nnc(S(=O)(=O)Cc3ccccc3)o2)cc2oc(=O)cc(C)c12 | 38.6 | 7.07 | – | 7
7 | CC/C(=C(\c1ccccc1)c1ccc(OCCN(C)C)cc1)c1ccccc1 [TAMOXIFEN] | 7.09 | 47.1 | – | –

Continued, in another order:

Row | IC50 [2] [µM] | IC50 [3] [µM] | SMILES | Ratio IC50 [1] | Ratio IC50 [4]
8 | < 5 | > 100 | Cc1cc(OCc2nnc(SCc3ccc(Cl)cc3Cl)o2)cc2oc(=O)cc(C)c12 | 1.4 | –
9 | > 100 | 7.07 | CCCS(=O)(=O)c1nnc(COc2cc(C)c3c(C)cc(=O)oc3c2)o1 | – | 7
10 | > 100 | > 100 | CCCCCCSc1nnc(COc2cc(C)c3c(C)cc(=O)oc3c2)o1 | – | –
11 | > 100 | > 100 | CCCSc1nnc(COc2cc(C)c3c(C)cc(=O)oc3c2)o1 | – | –
12 | > 100 | > 100 | CCS(=O)(=O)c1nnc(COc2cc(C)c3c(C)cc(=O)oc3c2)o1 | – | –
13 | > 100 | > 100 | CCCCSc1nnc(COc2cc(C)c3c(C)cc(=O)oc3c2)o1 | – | –
14 | > 100 | > 100 | CCCCCSc1nnc(COc2cc(C)c3c(C)cc(=O)oc3c2)o1 | – | –
15 | > 100 | > 100 | Cc1cc(OCc2nnc(SCc3ccccc3)o2)cc2oc(=O)cc(C)c12 | – | –
16 | > 100 | > 100 | CSc1nnc(COc2cc(C)c3c(C)cc(=O)oc3c2)o1 | – | –
17 | > 100 | > 100 | CCSc1nnc(COc2cc(C)c3c(C)cc(=O)oc3c2)o1 | – | –
